Results taken from paper PMC7830917, “PEG-BHD1028 Peptide Regulates Insulin Resistance and Fatty Acid β-Oxidation, and Mitochondrial Biogenesis by Binding to Two Heterogeneous Binding Sites of Adiponectin Receptors, AdipoR1 and AdipoR2” (International Journal of Molecular Sciences, 2021).

Tests used:
C2C12 myotubes = test: 2-Deoxy-D-glucose uptake, non-resistant C2C12 myotubes; type: cell-based, mouse; details: 100 nM insulin
Protocol: (§1) Skeletal muscle is the primary site of glucose metabolism, accounting for approximately […] of the entire body’s glucose uptake in the presence of insulin [22]. […] The effect of PEG-BHD1028 on glucose uptake in insulin-resistant C2C12 skeletal muscle cells was evaluated. To induce insulin resistance, differentiated C2C12 myotubes were treated with 0.6 mM palmitate and incubated for 16 h and then treated with 100 nM insulin and PEG-BHD1028 at concentrations of 100 and 500 nM for 30 min.
(§2) The 2-DG uptake of C2C12 cells was measured using the Glucose Uptake Assay Kit (Colorimetric, Ab136955, Abcam, Cambridge, UK) according to the manufacturer’s instruction. Palmitate to induce insulin resistance was prepared with minor modifications from the previous description. Briefly, palmitate was dissolved in 0.1 M NaOH to a concentration of 20 mM by heating at 75 °C and the dissolved solution was then diluted with 5% fatty acid-free bovine serum at a stock solution of 6 mM at 55 °C. Cells were treated with 0.6 mM palmitate overnight. The fixed cells were washed three times with DPBS, followed by incubation in Krebs-Ringer-Phosphate-Hepes (KRPH) buffer containing 2% fatty acid free-BSA for 40 min. […] Absorbance was measured using an Epoch microplate reader (BioTek Instruments, Inc., Winooski, VT, USA) at 412 nm.

[1] = system: insulin-resistant C2C12 myotubes; test: 2-Deoxy-D-glucose uptake, insulin-resistant C2C12 myotubes; type: cell-based, mouse; details: 0.6 mM palmitate; 100 nM insulin
Protocol: as §1, §2

[2] = via AMPK, after binding to AdipoR1 and AdipoR2 in the hypothalamus; cited from earlier work
Description: Besides the effect on the amelioration of insulin resistance, it has been widely known that adiponectin induces weight loss through fatty acid oxidation and energy expenditure. At the molecular level, adiponectin activates 5’ AMP-activated protein kinase (AMPK) and peroxisome proliferator-activated receptor alpha (PPARα) signal pathways. AMPK pathway ultimately enhances mitochondrial biogenesis and fatty acid β-oxidation, and the activated PPARα promotes uptake, utilization, and catabolism of fatty acids by upregulating the genes involved in fatty acid transport, fatty acid-binding ...

diabetic swine = details: cited from earlier work
Description: It has also been well accepted that adiponectin alleviates insulin resistance, and adiponectin deficiency leads to abnormal glucose metabolism. Thus, insulin resistance has been recognized as the most fundamental root cause of type 2 diabetes mellitus, and the concentration of circulating adiponectin is negatively correlated with insulin resistance. […] Recent studies also have shown that p38 MAPK acts as an essential mediator in regulating adiponectin-induced ...

Q: For insulin: insulin, which “glucose uptake, non-resistant cells, insulin alone” value (C2C12 myotubes) is on record?
A: significantly increased

Q: And the “glucose uptake, insulin-resistant cells, insulin alone” value [1]?
A: not observed

B1: adiponectin: hormone, endogenous ligand of AdipoR1 and AdipoR2 (protein, UniProt Q15848 19-244, looked up)
Adiponectin: ETTTQGPGVLLPLPKGACTGWMAGIPGHPGHNGAPGRDGRDGTPGEKGEKGDPGLIGPKGDIGETGVPGAEGPRGFPGIQGRKGEPGEGAYVYRSAFSVGLETYVTIPNMPIRFTKIFYNQQNHYDGSTGKFHCNIPGLYYFAYHITVYMKDVKVSLFKKDKAMLFTYDQYQENNVDQASGSVLLHLEVGDQVWLQVYGEGERNGLYADNDNDSTFTGFLLYHDTN
Q: Which appetite [2] does the source give for B1 here?
A: induced appetite

Q: And the “glucose metabolism / insulin sensitivity” value (diabetic swine)?
A: enhanced glucose metabolism by improving insulin sensitivity
